Data published in patent US20230304010A1, “COMPOSITIONS AND METHODS FOR TREATING VIRAL INFECTIONS” (priority 2020, published 2023).

Columns and labels:
[1] = system: SARS-CoV-2 Nucleocapsid gene; format: cell-based
[2] = in vitro; conditions: uninfected Vero E6 cells
[3] = target: ACE2:SARS-CoV-2 Spike interaction (UniProt P0DTC2+Q9BYF1); assay: biochemical; format: binding; conditions: for IC50: ACE2:SARS-CoV-2 Spike IC50
[4] = target: SARS-CoV-2 Spike: ACE2 interaction (UniProt P0DTC2+Q9BYF1); assay: biochemical; format: binding; conditions: for IC50: SARS-CoV-2 Spike:ACE2 IC50
[5] = Nanoparticle formation of peptides with ADGN-106: mean size and polydispersity (Zetasizer); format: physicochemical; conditions: 25° C.; for Mean Size (nm): peptide/ADGN-106 complexes; for PI: polydispersity index of peptide/ADGN-106 complexes
From the text: We then tested the ability of the different peptides to form nanoparticle organization in the presence of ADGN-106 or ADGN-100 peptide. […] Peptides were complexed with 5 or 10 molar excess of ADGN-106.

[6] = system: SARS-CoV-2; further: test concentration or dose not given here

Chain of SARS-CoV-2 Spike: ACE2 interaction (Q9BYF1 18-740, one chain of several): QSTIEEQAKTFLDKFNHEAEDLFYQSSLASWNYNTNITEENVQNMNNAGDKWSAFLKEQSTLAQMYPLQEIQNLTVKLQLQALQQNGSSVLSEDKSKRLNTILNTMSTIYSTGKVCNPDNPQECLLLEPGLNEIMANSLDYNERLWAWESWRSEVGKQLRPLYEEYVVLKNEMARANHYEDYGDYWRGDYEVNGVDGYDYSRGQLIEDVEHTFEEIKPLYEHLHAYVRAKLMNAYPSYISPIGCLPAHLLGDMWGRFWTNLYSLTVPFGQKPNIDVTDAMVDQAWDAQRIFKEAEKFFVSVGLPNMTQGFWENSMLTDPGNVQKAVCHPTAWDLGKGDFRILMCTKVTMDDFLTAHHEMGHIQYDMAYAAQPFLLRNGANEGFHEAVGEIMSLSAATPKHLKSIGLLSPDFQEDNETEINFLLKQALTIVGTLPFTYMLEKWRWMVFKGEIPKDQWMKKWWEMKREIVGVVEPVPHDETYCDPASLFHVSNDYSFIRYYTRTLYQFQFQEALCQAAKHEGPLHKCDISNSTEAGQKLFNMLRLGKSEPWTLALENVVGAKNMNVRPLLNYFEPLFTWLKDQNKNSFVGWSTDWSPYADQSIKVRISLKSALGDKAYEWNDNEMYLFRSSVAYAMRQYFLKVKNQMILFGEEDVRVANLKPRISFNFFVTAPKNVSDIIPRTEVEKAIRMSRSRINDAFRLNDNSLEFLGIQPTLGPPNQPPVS
Chain of ACE2:SARS-CoV-2 Spike interaction (Q9BYF1 18-740, one chain of several): as above

Compound	IC50 [1] [nM]	IC50 [3] [nM]	IC50 [4] [nM]	also measured
GGCTGATGAAACTCAAGCCTT (chemistry not given here) [DIVC-5]	> 500			
AAGCATATTGACGCATACAAA (chemistry not given here) [DIVC-9]	394			
GCAGACGTGGTCCAGAACAAA (chemistry not given here) [DIVC-7]	147			
CC(C)C[C@H](NC(=O)[C@H](C)NC(=O)[C@H](CCCNC(=N)N)NC(=O)[C@H](Cc1c[nH]c2ccccc12)NC(=O)[C@@H](N)CC(C)C)C(=O)N[C@@H](Cc1c[nH]c2ccccc12)C(=O)N[C@@H](CCCNC(=N)N)C(=O)N[C@@H](CC(C)C)C(=O)N[C@@H](Cc1c[nH]c2ccccc12)C(=O)N[C@@H](CCCNC(=N)N)C(=O)N[C@@H](CO)C(=O)N[C@@H](CC(C)C)C(=O)N[C@@H](Cc1c[nH]c2ccccc12)C(=O)N[C@@H](CCCNC(=N)N)C(=O)N[C@@H](CC(C)C)C(=O)N[C@@H](CC(C)C)C(=O)N[C@@H](Cc1c[nH]c2ccccc12)C(=O)N[C@@H](CCCCN)C(=O)O [ADGN-106, reference compound]				CC50 [2]: 356000 ± 64000 nM; viability at 0.5 µM [2]: 84%
CC(=O)N[C@@H](Cc1ccc(O)cc1)C(=O)N[C@@H](Cc1ccccc1)C(=O)N1CCC[C@H]1C(=O)N[C@@H](CC(C)C)C(=O)N[C@@H](CCC(N)=O)C(=O)N[C@@H](CO)C(=O)N[C@@H](Cc1ccc(O)cc1)C(=O)NCC(=O)N[C@@H](Cc1ccccc1)C(=O)N[C@@H](CCC(N)=O)C(=O)N1CCC[C@H]1C(=O)N[C@H](C(=O)N[C@@H](CC(N)=O)C(=O)NCC(=O)N[C@H](C(=O)NCC(=O)N[C@@H](Cc1ccc(O)cc1)C(=O)N[C@@H](CCC(N)=O)C(=O)NCCCCC(=O)N[C@@H](CC(C)C)C(=O)N[C@@H](Cc1c[nH]c2ccccc12)C(=O)N[C@@H](CCCNC(=N)N)C(=O)N[C@@H](C)C(=O)N[C@@H](CC(C)C)C(=O)N[C@@H](Cc1c[nH]c2ccccc12)C(=O)N[C@@H](CCCNC(=N)N)C(=O)N[C@@H](CC(C)C)C(=O)N[C@@H](Cc1c[nH]c2ccccc12)C(=O)N[C@@H](CCCNC(=N)N)C(=O)N[C@@H](CO)C(=O)N[C@@H](CC(C)C)C(=O)N[C@@H](Cc1c[nH]c2ccccc12)C(=O)N[C@@H](CCCNC(=N)N)C(=O)N[C@@H](CC(C)C)C(=O)N[C@@H](CC(C)C)C(=O)N[C@@H](Cc1c[nH]c2ccccc12)C(=O)N[C@@H](CCCCN)C(N)=O)C(C)C)[C@@H](C)O [Seq19]		349 ± 26	90.6	blocked ACE2:SARS-CoV-2 Spike interaction [3]: blocked; blocked SARS-CoV-2 Spike: ACE2 interaction [4]: blocked; Mean Size (nm) [5]: 37.2 ± 5 nm; PI [5]: 0.24; Residual Infection (%) [6]: 90%; viability at 0.5 µM [2]: 87%
GCAACAATCCATGAGCAGTGC (chemistry not given here) [DIVC-10]	28.4			
GACCAGGAACTAATCAGACAA (chemistry not given here) [DIVC-2]	> 500			
GCAACTGAGGGAGCCTTGAAT (chemistry not given here) [DIVC-1]	> 500			
CC(=O)N[C@@H](CCCCN)C(=O)N[C@H](C(=O)N[C@@H](Cc1ccccc1)C(=O)N[C@@H](CC(C)C)C(=O)N[C@@H](CC(=O)O)C(=O)N[C@@H](CCCCN)C(=O)N[C@@H](Cc1ccccc1)C(=O)N[C@@H](CC(N)=O)C(=O)N[C@@H](Cc1c[nH]cn1)C(=O)N[C@@H](CCC(=O)O)C(=O)N[C@@H](C)C(=O)N[C@@H](CCC(=O)O)C(=O)N[C@@H](CC(=O)O)C(=O)N[C@@H](CC(C)C)C(=O)N[C@@H](Cc1ccccc1)C(=O)NCCCCCC(=O)N[C@@H](CC(C)C)C(=O)N[C@@H](Cc1c[nH]c2ccccc12)C(=O)N[C@@H](CCCNC(=N)N)C(=O)N[C@@H](C)C(=O)N[C@@H](CC(C)C)C(=O)N[C@@H](Cc1c[nH]c2ccccc12)C(=O)N[C@@H](CCCNC(=N)N)C(=O)N[C@@H](CC(C)C)C(=O)N[C@@H](Cc1c[nH]c2ccccc12)C(=O)N[C@@H](CCCNC(=N)N)C(=O)N[C@@H](CO)C(=O)N[C@@H](CC(C)C)C(=O)N[C@@H](Cc1c[nH]c2ccccc12)C(=O)N[C@@H](CCCNC(=N)N)C(=O)N[C@@H](CC(C)C)C(=O)N[C@@H](CC(C)C)C(=O)N[C@@H](Cc1c[nH]c2ccccc12)C(=O)N[C@@H](CCCCN)C(N)=O)[C@@H](C)O [Seq34]		> 1000	> 1000	Residual Infection (%) [6]: 100%; viability at 0.5 µM [2]: 98%
CSCC[C@H](NC(=O)[C@H](CCC(N)=O)NC(=O)[C@H](C)NC(=O)[C@H](CC(C)C)NC(=O)[C@@H](NC(=O)[C@H](CO)NC(=O)[C@H](CCC(N)=O)NC(=O)[C@H](CCC(=O)O)NC(=O)[C@H](CCCCN)NC(=O)[C@H](CC(C)C)NC(=O)[C@H](Cc1ccccc1)NC(=O)[C@H](C)NC(=O)[C@H](CO)NC(=O)[C@H](Cc1c[nH]c2ccccc12)NC(=O)[C@H](CCCCN)NC(=O)[C@@H]1CCCN1C(=O)[C@H](Cc1ccccc1)NC(=O)[C@H](CC(C)C)NC(=O)[C@H](CC(=O)O)NC(=O)[C@H](CCC(=O)O)NC(=O)[C@H](C)NC(=O)[C@H](CCC(=O)O)NC(=O)[C@H](Cc1c[nH]cn1)NC(=O)[C@H](CC(N)=O)NC(=O)[C@H](Cc1ccccc1)NC(=O)[C@H](CCCCN)NC(=O)[C@H](CC(=O)O)NC(=O)[C@H](CC(C)C)NC(=O)[C@H](Cc1ccccc1)NC(=O)[C@@H](NC(=O)[C@H](CCCCN)NC(C)=O)[C@@H](C)O)[C@@H](C)O)C(=O)N[C@@H](Cc1ccc(O)cc1)C(=O)NCC(=O)NCCCCCC(=O)N[C@@H](CC(C)C)C(=O)N[C@@H](Cc1c[nH]c2ccccc12)C(=O)N[C@@H](CCCNC(=N)N)C(=O)N[C@@H](C)C(=O)N[C@@H](CC(C)C)C(=O)N[C@@H](Cc1c[nH]c2ccccc12)C(=O)N[C@@H](CCCNC(=N)N)C(=O)N[C@@H](CC(C)C)C(=O)N[C@@H](Cc1c[nH]c2ccccc12)C(=O)N[C@@H](CCCNC(=N)N)C(=O)N[C@@H](CO)C(=O)N[C@@H](CC(C)C)C(=O)N[C@@H](Cc1c[nH]c2ccccc12)C(=O)N[C@@H](CCCNC(=N)N)C(=O)N[C@@H](CC(C)C)C(=O)N[C@@H](CC(C)C)C(=O)N[C@@H](Cc1c[nH]c2ccccc12)C(=O)N[C@@H](CCCCN)C(N)=O [Seq40]		85.4 ± 12	45.1	increase of potency/efficiency by covalent coupling to ADGN peptide [3]: 1.4 folds; Mean Size (nm) [5]: 54.5 ± 14 nm; PI [5]: 0.31
GACTTCCCTATGGTGCTAACA (chemistry not given here) [DIVC-4]	254			
CSCC[C@H](NC(=O)[C@H](CO)NC(=O)[C@H](CC(N)=O)NC(=O)[C@H](CCC(=O)O)NC(=O)[C@H](Cc1c[nH]c2ccccc12)NC(=O)[C@H](Cc1ccccc1)NC(=O)CNC(=O)[C@H](CCC(N)=O)NC(=O)[C@@H](NC(=O)[C@H](CCSC)NC(=O)[C@H](CC(N)=O)NC(C)=O)[C@@H](C)O)C(=O)N[C@@H](CC(C)C)C(=O)N[C@H](C(=O)N[C@@H](CC(=O)O)C(=O)NCCCCCC(=O)N[C@@H](CC(C)C)C(=O)N[C@@H](Cc1c[nH]c2ccccc12)C(=O)N[C@@H](CCCNC(=N)N)C(=O)N[C@@H](C)C(=O)N[C@@H](CC(C)C)C(=O)N[C@@H](Cc1c[nH]c2ccccc12)C(=O)N[C@@H](CCCNC(=N)N)C(=O)N[C@@H](CC(C)C)C(=O)N[C@@H](Cc1c[nH]c2ccccc12)C(=O)N[C@@H](CCCNC(=N)N)C(=O)N[C@@H](CO)C(=O)N[C@@H](CC(C)C)C(=O)N[C@@H](Cc1c[nH]c2ccccc12)C(=O)N[C@@H](CCCNC(=N)N)C(=O)N[C@@H](CC(C)C)C(=O)N[C@@H](CC(C)C)C(=O)N[C@@H](Cc1c[nH]c2ccccc12)C(=O)N[C@@H](CCCCN)C(N)=O)[C@@H](C)O [Seq37]		645	> 1000	Mean Size (nm) [5]: 59.2 ± 14 nm; PI [5]: 0.24
